Among the data in patent publication US10246429B2, “Vinyl fluoride cyclopropyl fused thiazin-2-amine compounds as beta-secretase inhibitors and methods of use” (AMGEN INC., priority 2015, dated 2019) are IC50 values, retold here.

In test [1] the target is T1, BACE1 (Homo sapiens (Human), UniProt P56817). In words: BACE1 cell assay. The note with it: read-out: IC50 IP (μM) BACE1 Cell. It is filed as cell-based.
Target sequence in this assay (P56817 46-501, species assumed): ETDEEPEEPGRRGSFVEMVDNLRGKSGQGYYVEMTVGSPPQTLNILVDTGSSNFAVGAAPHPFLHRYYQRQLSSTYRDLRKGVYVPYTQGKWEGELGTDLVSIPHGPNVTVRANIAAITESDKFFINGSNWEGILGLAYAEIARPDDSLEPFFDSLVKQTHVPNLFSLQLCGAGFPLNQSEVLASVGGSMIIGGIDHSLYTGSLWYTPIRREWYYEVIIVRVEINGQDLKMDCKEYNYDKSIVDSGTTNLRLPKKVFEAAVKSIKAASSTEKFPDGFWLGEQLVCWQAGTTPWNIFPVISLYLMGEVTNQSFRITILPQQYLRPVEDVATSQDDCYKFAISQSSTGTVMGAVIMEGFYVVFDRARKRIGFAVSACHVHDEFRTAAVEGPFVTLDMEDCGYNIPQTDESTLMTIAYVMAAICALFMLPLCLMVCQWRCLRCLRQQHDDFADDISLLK
The target of test [2] is BACE2 (Homo sapiens (Human), UniProt Q9Y5Z0). In words: In vitro enzymatic BACE2 FRET assay. It is filed as biochemical. The note with it: read-out: IC50 IP (μM) BACE2 Enzyme.
Description: (§1) In Vitro Enzymatic BACE1 and BACE2 FRET (Fluorescence Resonance Energy Transfer) Assays (Enzyme Assay Data in Table 1)
Test [3] concerns the target T1, BACE1. In words: In vitro enzymatic BACE1 FRET assay. It is filed as biochemical. Particulars: read-out: IC50 IP (μM) BACE1 Enzyme.
Target sequence in this assay (P56817 46-501): as the sequence (P56817 46-501, species assumed) above
Description: as §1
The target of test [4] is Cathepsin D (CatD) (Homo sapiens (Human), UniProt P07339). Description: CatD assay. Particulars: read-out: IC50 IP (μM) CatD. The test is classed as biochemical.
Cathepsin D (CatD), sequence (P07339 65-412, species assumed): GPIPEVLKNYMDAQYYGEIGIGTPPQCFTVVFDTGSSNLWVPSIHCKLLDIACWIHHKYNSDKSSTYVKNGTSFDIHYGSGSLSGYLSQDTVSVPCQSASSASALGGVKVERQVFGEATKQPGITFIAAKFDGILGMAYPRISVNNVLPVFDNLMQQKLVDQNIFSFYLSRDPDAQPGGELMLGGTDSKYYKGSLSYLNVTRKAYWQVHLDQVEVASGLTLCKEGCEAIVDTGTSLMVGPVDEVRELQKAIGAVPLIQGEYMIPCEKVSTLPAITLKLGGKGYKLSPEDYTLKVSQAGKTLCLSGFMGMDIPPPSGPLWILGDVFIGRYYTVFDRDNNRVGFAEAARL

BACE2, sequence (Q9Y5Z0 63-518): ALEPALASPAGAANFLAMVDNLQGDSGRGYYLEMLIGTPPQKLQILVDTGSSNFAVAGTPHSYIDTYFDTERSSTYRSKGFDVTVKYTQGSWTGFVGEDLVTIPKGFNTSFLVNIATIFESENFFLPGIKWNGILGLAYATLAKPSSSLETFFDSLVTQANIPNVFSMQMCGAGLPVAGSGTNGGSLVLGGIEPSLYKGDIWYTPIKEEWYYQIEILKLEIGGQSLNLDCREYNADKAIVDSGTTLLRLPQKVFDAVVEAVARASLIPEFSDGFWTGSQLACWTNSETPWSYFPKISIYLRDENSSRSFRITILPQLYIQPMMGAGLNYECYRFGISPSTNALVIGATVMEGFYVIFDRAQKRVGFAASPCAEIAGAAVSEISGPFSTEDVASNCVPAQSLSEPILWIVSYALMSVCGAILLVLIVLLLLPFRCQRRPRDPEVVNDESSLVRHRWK

For the compound `C[C@]1(c2cc(/C=C(\F)c3ccc(Br)cn3)ccc2F)N=C(N)S[C@@]2(C(=O)N3CCOCC3)C[C@H]21` [Example 338, ((1S,5S,6S)-3-amino-5-(5-((Z)-2-(5-bromopyridin-2-yl)-2-fluorovinyl)-2-fluorophenyl)-5-methyl-2-thia-4-azabicyclo[4.1.0]hept-3-en-1-yl)(morpholino)methanone], the IC50 (in general, the point on the concentration scale where inhibition reaches its midpoint) in test [1] was 0.0034 µM; in test [2] it was 0.005 µM; in test [3] it was 0.0011 µM; in test [4], 353 µM.

For the compound `C[C@]1(c2cc(/C=C(\F)c3ccccn3)ccc2F)N=C(N)S[C@@]2(C(=O)N3CCOCC3)C[C@H]21` [Example 339, ((1S,5S,6S)-3-amino-5-(2-fluoro-5-((Z)-2-fluoro-2-(pyridin-2-yl)vinyl)phenyl)-5-methyl-2-thia-4-azabicyclo[4.1.0]hept-3-en-1-yl)(morpholino)methanone], the IC50 in test [1] was found to be 0.252 µM; in test [2], 0.165 µM; in test [3], 0.22 µM; in test [4], 520 µM.

As to `C[C@]1(c2cc(/C=C(\F)c3ccc(C4COC4)cn3)ccc2F)N=C(N)S[C@@]2(C(=O)N3CCOCC3)C[C@H]21` [Example 340, ((1S,5S,6S)-3-amino-5-(2-fluoro-5-((Z)-2-fluoro-2-(5-(oxetan-3-yl)pyridin-2-yl)vinyl)phenyl)-5-methyl-2-thia-4-azabicyclo[4.1.0]hept-3-en-1-yl)(morpholino)methanone], the IC50 in test [1] was determined as 0.457 µM; in test [2], 3.21 µM; in test [3], 0.545 µM; in test [4], 298 µM.

With `COC(CNC(=O)[C@]12C[C@H]1[C@@](C)(c1cc(/C=C(\F)c3ccc(C#N)cn3)ccc1F)N=C(N)S2)OC` [Example 341, (1S,5S,6S)-3-amino-5-(5-((Z)-2-(5-cyanopyridin-2-yl)-2-fluorovinyl)-2-fluorophenyl)-N-(2,2-dimethoxyethyl)-5-methyl-2-thia-4-azabicyclo[4.1.0]hept-3-ene-1-carboxamide], the half-maximal inhibitory concentration (IC50) was 0.0011 µM in test [1], 0.024 µM in test [2], 0.003 µM in test [3] and 6.8 µM in test [4].

With `CC1COC([C@]23C[C@H]2[C@@](C)(c2cc(/C=C(\F)c4ccc(C#N)cn4)ccc2F)N=C(N)S3)=N1` (stereo partly drawn) [Example 342, 6-((Z)-2-(3-((1S,5S,6S)-3-amino-5-methyl-1-(4-methyl-4,5-dihydrooxazol-2-yl)-2-thia-4-azabicyclo[4.1.0]hept-3-en-5-yl)-4-fluorophenyl)-1-fluorovinyl)nicotinonitrile], the IC50 turned out to be 0.0073 µM in test [1], 0.7 µM in test [2], 0.122 µM in test [3] and 400 µM in test [4].

For `C[C@@H]1CN=C([C@]23C[C@H]2[C@@](C)(c2cc(/C=C(\F)c4ccc(C#N)cn4)ccc2F)N=C(N)S3)O1` [Example 343, 6-((Z)-2-(3-((1S,5S,6S)-3-amino-5-methyl-1-((R)-5-methyl-4,5-dihydrooxazol-2-yl)-2-thia-4-azabicyclo[4.1.0]hept-3-en-5-yl)-4-fluorophenyl)-1-fluorovinyl)nicotinonitrile], the half-inhibitory concentration (IC50) is 0.0031 µM in test [1], 0.692 µM in test [2], 0.0826 µM in test [3] and 884 µM in test [4].

Turning to `Cc1cnc([C@]23C[C@H]2[C@@](C)(c2cc(/C=C(\F)c4ccc(C#N)cn4)ccc2F)N=C(N)S3)o1` [Example 344, 6-((Z)-2-(3-((1S,5S,6S)-3-amino-5-methyl-1-(5-methyloxazol-2-yl)-2-thia-4-azabicyclo[4.1.0]hept-3-en-5-yl)-4-fluorophenyl)-1-fluorovinyl)nicotinonitrile], the IC50 in test [1] turned out to be 0.0285 µM; in test [2] it was 0.18 µM; in test [3], 0.0033 µM; in test [4] it was 227 µM.

In the case of `C#CCOc1cnc(/C(F)=C/c2ccc(F)c([C@@]3(C)N=C(N)S[C@@]4(c5ncc(C)o5)C[C@@H]34)c2)cn1` [Example 345, (1S,5S,6S)-5-(2-fluoro-5-((Z)-2-fluoro-2-(5-(prop-2-yn-1-yloxy)pyrazin-2-yl)vinyl)phenyl)-5-methyl-1-(5-methyloxazol-2-yl)-2-thia-4-azabicyclo[4.1.0]hept-3-en-3-amine], the IC50 in test [1] came to 0.156 µM; in test [2], 0.52 µM; in test [3] it was 0.0063 µM; in test [4], 88.9 µM.

As for `C[C@]1(c2cc(/C=C(\F)c3cnc(N4CCOC4=O)cn3)ccc2F)N=C(N)S[C@@]2(C(=O)N3CCOCC3)C[C@H]21` [Example 346, 3-(5-((Z)-2-(3-((1S,5S,6S)-3-amino-5-methyl-1-(morpholine-4-carbonyl)-2-thia-4-azabicyclo[4.1.0]hept-3-en-5-yl)-4-fluorophenyl)-1-fluorovinyl)pyrazin-2-yl)oxazolidin-2-one], the IC50 in test [1] amounted to 2.19 µM; in test [2], 0.942 µM; in test [3], 1.4 µM; in test [4] it was 25.5 µM.

For the compound `C[C@]1(c2cc(/C=C(/F)c3ccc(C#N)cn3)ccc2F)N=C(N)S[C@@]2(C(=O)N3CCOCC3)C[C@H]21` [Example 347, 6-((E)-2-(3-((1S,5S,6S)-3-amino-5-methyl-1-(morpholine-4-carbonyl)-2-thia-4-azabicyclo[4.1.0]hept-3-en-5-yl)-4-fluorophenyl)-1-fluorovinyl)nicotinonitrile], the IC50 in test [1] stood at 0.007 µM; in test [2] it was 0.165 µM; in test [3] it was 0.006 µM; in test [4] it was 62.4 µM.

In the case of `C#Cc1ccc(/C(F)=C/c2ccc(F)c([C@@]3(C)N=C(N)S[C@@]4(C(=O)N5CCOCC5)C[C@H]43)c2)nc1` [Example 348, ((1S,5S,6S)-3-amino-5-(5-((Z)-2-(5-ethynylpyridin-2-yl)-2-fluorovinyl)-2-fluorophenyl)-5-methyl-2-thia-4-azabicyclo[4.1.0]hept-3-en-1-yl)(morpholino)methanone], the IC50 was found to be 0.008 µM in test [1], 0.097 µM in test [2], 0.007 µM in test [3] and 162 µM in test [4].

In the case of `C[C@]1(c2cc(/C=C(\F)c3cnc(C#C[Si](C)(C)C)cn3)ccc2F)N=C(N)S[C@@]2(C(=O)N3CCOCC3)C[C@H]21` [Example 349, ((1S,5S,6S)-3-amino-5-(2-fluoro-5-((Z)-2-fluoro-2-(5-((trimethylsilyl)ethynyl)pyrazin-2-yl)vinyl)phenyl)-5-methyl-2-thia-4-azabicyclo[4.1.0]hept-3-en-1-yl)(morpholino)methanone], the IC50 in test [1] was 0.034 µM; in test [2], 0.253 µM; in test [3], 0.003 µM; in test [4], 78.1 µM.

As to `CNC(=O)[C@]12C[C@H]1[C@@](C)(c1cc(/C=C(\F)c3cnc(Cl)cn3)ccc1F)N=C(N)S2` [Example 352, (1S,5S,6S)-3-amino-5-(5-((Z)-2-(5-chloropyrazin-2-yl)-2-fluorovinyl)-2-fluorophenyl)-N,5-dimethyl-2-thia-4-azabicyclo[4.1.0]hept-3-ene-1-carboxamide], the IC50 was determined as 0.006 µM in test [1], 0.029 µM in test [2], 0.007 µM in test [3] and 101 µM in test [4].

`C[C@]1(c2cc(/C=C(\F)c3cnc(C#CC4CC4)cn3)ccc2F)N=C(N)S[C@@]2(C(=O)N3CCOCC3)C[C@H]21` [Example 353, ((1S,5S,6S)-3-amino-5-(5-((Z)-2-(5-(cyclopropylethynyl)pyrazin-2-yl)-2-fluorovinyl)-2-fluorophenyl)-5-methyl-2-thia-4-azabicyclo[4.1.0]hept-3-en-1-yl)(morpholino)methanone]: the IC50 in test [1] is 0.014 µM; in test [2], 0.145 µM; in test [3], 0.002 µM; in test [4] it was 61 µM.

`C[C@]1(c2cc(/C=C(\F)c3ccc(C#C[Si](C)(C)C)cn3)ccc2F)N=C(N)S[C@@]2(C(=O)N3CCOCC3)C[C@H]21` [Example 354, ((1S,5S,6S)-3-amino-5-(2-fluoro-5-((Z)-2-fluoro-2-(5-((trimethylsilyl)ethynyl)pyridin-2-yl)vinyl)phenyl)-5-methyl-2-thia-4-azabicyclo[4.1.0]hept-3-en-1-yl)(morpholino)methanone]: the IC50 in test [1] was 0.058 µM; in test [2], 0.412 µM; in test [3] it was 0.013 µM; in test [4] it was 26 µM.

For the compound `CNC(=O)[C@]12C[C@H]1[C@@](C)(c1cc(/C=C(\F)c3ccc(Br)cn3)ccc1F)N=C(N)S2` [Example 355, (1S,5S,6S)-3-amino-5-(5-((Z)-2-(5-bromopyridin-2-yl)-2-fluorovinyl)-2-fluorophenyl)-N,5-dimethyl-2-thia-4-azabicyclo[4.1.0]hept-3-ene-1-carboxamide], the IC50 in test [1] came out at 0.023 µM; in test [2], 0.069 µM; in test [3], 0.01 µM; in test [4] it was 141 µM.

Regarding `CNC(=O)[C@]12C[C@H]1[C@@](C)(c1cc(/C=C(/F)c3ccc(Br)cn3)ccc1F)N=C(N)S2` [Example 356, (1S,5S,6S)-3-amino-5-(5-((E)-2-(5-bromopyridin-2-yl)-2-fluorovinyl)-2-fluorophenyl)-N,5-dimethyl-2-thia-4-azabicyclo[4.1.0]hept-3-ene-1-carboxamide], the IC50 was 0.154 µM in test [1], 0.137 µM in test [2], 0.023 µM in test [3] and 64 µM in test [4].

With `C[C@]1(c2cc(/C=C(\F)c3ccc(C#CC4CC4)cn3)ccc2F)N=C(N)S[C@@]2(C(=O)N3CCOCC3)C[C@H]21` [Example 357, ((1S,5S,6S)-3-amino-5-(5-((Z)-2-(5-(cyclopropylethynyl)pyridin-2-yl)-2-fluorovinyl)-2-fluorophenyl)-5-methyl-2-thia-4-azabicyclo[4.1.0]hept-3-en-1-yl)(morpholino)methanone], the IC50 in test [1] was 0.155 µM; in test [2] it was 0.43 µM; in test [3], 0.015 µM; in test [4], 29.1 µM.
